Laboratory results reported in ChEMBL document CHEMBL5726851, “2-oxo-imidazopyridines as reversible BTK inhibitors and uses thereof” (2019).

Biological target: Tyrosine-protein kinase BTK (Homo sapiens, UniProt Q06187)
Test: Microfluidic Off-Chip Mobility Shift Assay Protocol for Potency Assessment Against BTK Enzyme: Briefly, 2.5× stocks of full-length human BTK (08-080) from CarnaBio USA, Inc., Natick, Mass., 1.6×ATP and appropriate kinKDR peptide substrate (FITC-AHA-[…]-NH2; developed in-house) were prepared in kinase reaction buffer consisting of 25 mM MgCl2, 0.015% Brij-35 (30%), 100 mM HEPES, pH 7.5, and 10 mM DTT. 5 uL of enzyme buffer and 7.5 uL of ATP/kinKDR peptide substrate mix were added to Matrix (#115304) 384-well, sterile, polypropylene plates (Thermo Fisher Scientific, Hudson, N.H.) with 125 nL of serially diluted compounds prepared in 100% DMSO, and incubated for 90 min. at 27° C. Following the incubation period, reactions were stopped by adding 60 uL stop buffer consisting of 100 mM HEPES, pH 7.5, 0.015% Brij-35 (30%), 0.277% Coating Reagent #3 (Caliper Life Sciences, Mountain View, Calif.), 5% DMSO. Stopped reactions were monitored at −2 PSI, −3000 V/−700 V in a LabChip 3000 plate reader from Caliper Life Sciences, a PerkinElmer Company (Hopkinton, Mass.), and the activity was measured by off-chip mobility shift assay measuring the charge/mass difference between substrate and product resulting from peptide phosphorilation. IC50 and efficacy were determined by plotting log [Inhibitor] vs. % Activity in GeneData Screener (Basel, Switzerland).

Tyrosine-protein kinase BTK, sequence (Q06187 whole entry): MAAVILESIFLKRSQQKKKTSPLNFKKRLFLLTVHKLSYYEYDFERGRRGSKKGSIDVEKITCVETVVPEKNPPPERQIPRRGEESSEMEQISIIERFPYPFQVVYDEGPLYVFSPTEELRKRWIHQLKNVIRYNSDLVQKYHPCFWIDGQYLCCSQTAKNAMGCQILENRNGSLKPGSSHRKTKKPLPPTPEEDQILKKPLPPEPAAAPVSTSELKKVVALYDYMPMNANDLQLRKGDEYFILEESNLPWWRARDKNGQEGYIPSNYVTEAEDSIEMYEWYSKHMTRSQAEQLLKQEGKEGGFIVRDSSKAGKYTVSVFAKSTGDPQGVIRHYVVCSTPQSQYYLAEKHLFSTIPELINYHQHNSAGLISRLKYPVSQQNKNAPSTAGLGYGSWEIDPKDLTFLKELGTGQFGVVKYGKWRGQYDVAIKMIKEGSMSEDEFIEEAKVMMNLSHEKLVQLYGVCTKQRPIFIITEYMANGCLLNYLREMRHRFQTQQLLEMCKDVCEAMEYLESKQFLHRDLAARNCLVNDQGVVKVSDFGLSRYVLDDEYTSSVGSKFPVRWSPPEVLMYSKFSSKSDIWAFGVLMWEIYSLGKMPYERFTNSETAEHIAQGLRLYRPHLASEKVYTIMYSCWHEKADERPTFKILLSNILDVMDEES

Compound: CC(C)(C)c1cc(C(=O)NC2CCCCc3cc(-c4ccnc5[nH]c(=O)[nH]c45)ccc32)on1 (stereo unspecified)
- IC50: < 10 nM
